# Source: patent US20230381157A1, “RIFABUTIN FOR THE TREATMENT OF ACINETOBACTER BAUMANNII” (University of Southern California, priority 2018, published 2023)
# “Also recorded” adds a separate entry of the source. Where two headings read alike, the source gives them in different places.
# Columns and labels:
# A. baumannii HUMC1 [1] = type: in vivo, mouse; details: for lung CFUs: lungs at 24 hrs post infection
# A. baumannii LAC-4 = type: in vivo, mouse; details: C3H mice, 10 mg/kg/daily or 1 mg/kg for 3 days, listed as RBT
# A. baumannii HUMC1 [2] = assay: Time kill assay in RPMI with or without amino acids; type: cell-based, Acinetobacter baumannii; details: RPMI alone vs RPMI with amino acids; 8 and 24 hrs
# A. baumannii ATCC 17978 = assay: IC50 dose response, inhibition of bacterial growth (BacTiter-Glo viability); type: cell-based, Acinetobacter baumannii; details: Acinetobacter baumannii, 11-point dose response
# HEK293T = assay: Specificity: mammalian cell cytotoxicity / inhibition of bacteria growth (CC50/IC50)
# E. coli JJ1886 = type: cell-based, Escherichia coli; details: TSA
# HepG2 = details: top screen hits; IC50 against A. baumannii HUMC1 in 50% serum
# A. baumannii HUMC1 [3] = assay: IC50 dose response, inhibition of bacterial growth (BacTiter-Glo viability); type: cell-based, Acinetobacter baumannii; details: Acinetobacter baumannii, 11-point dose response
# A. baumannii = type: cell-based, Acinetobacter baumannii
# A. baumannii HUMC1 [4] = type: in vivo, mouse
# E. coli = assay: MIC, broth microdilution; type: cell-based; details: Escherichia coli
# LAC-4 = type: in vivo, Galleria mellonella; details: G. mellonella
# S. aureus LAC = type: cell-based, Staphylococcus aureus; details: TSA
# Acinetobacter baumannii = assay: Galleria mellonella infection model; type: in vivo
# K. pneumonia = assay: MIC, broth microdilution; type: cell-based; details: Klebsiella pneumoniae, K. pneumonia KPC-KP1
# A. baumannii HUMC1 [5] = assay: MIC, broth microdilution in MHII, RPMI or modified media; type: cell-based, Acinetobacter baumannii; details: Acinetobacter baumannii, HUMC1, HUMC1
# [6] = 5 mg/kg/daily for 3 days, oral gavage
# [7] = 5 mg/kg/daily for 3 days, oral gavage, listed as RBT
smiles,measurement,setting,value
CO[C@H]1/C=C/O[C@@]2(C)Oc3c(C)c(O)c4c(c3C2=O)C2=NC3(CCN(CC(C)C)CC3)NC2=C(NC(=O)/C(C)=C\C=C\[C@H](C)[C@H](O)[C@@H](C)[C@@H](O)[C@@H](C)[C@H](OC(C)=O)[C@@H]1C)C4=O [rifabutin],survival,"A. baumannii HUMC1 [1]; 5 mg/kg for 3 days, […]",about 80%
same,survival,A. baumannii HUMC1 [1]; [6],significantly improved
same,survival,A. baumannii HUMC1 [1]; [7],significantly improved survival
same,lung CFUs,A. baumannii HUMC1 [1]; [6],significantly lower CFUs in the lung
same,lung CFUs,A. baumannii HUMC1 [1]; [7],significantly reduced lung CFUs; also recorded: significantly lower CFUs in the lung
same,survival,"A. baumannii HUMC1 [1]; 10 mg/kg/day for 3 days, oral gavage, listed as RBT",modest improvement in survival; also recorded: modest survival benefit
same,reduction in the median CFUs in the blood as compared to RIF-treated mice,"A. baumannii HUMC1 [1]; 10 mg/kg/day for 3 days, at 24 hours",7 log
same,CFUs in blood (vs RIF),"A. baumannii HUMC1 [1]; C3H mice, 10 mg/kg/daily for 3 days, oral gavage, blood at 24 hrs",significant reduction in CFUs
same,improvement of survival rates,"A. baumannii HUMC1 [1]; murine pneumonia, 5 mg/kg",over 70%
same,bacterial burden,"A. baumannii HUMC1 [1]; murine pneumonia, 5 mg/kg, day 7 post-infection",about 2 Log10(CFU/mg lung)
same,efficacy RBT vs RIF,A. baumannii LAC-4,no difference in efficacy
same,reduction in CFUs (time kill),A. baumannii HUMC1 [2],greater reduction in CFUs
same,IC50,"A. baumannii ATCC 17978; ATCC17978, 24 h, ATCC 17978, RPMI + 50% Serum",< 0.847 nM
same,IC50,"A. baumannii ATCC 17978; ATCC17978, ATCC 17978, RPMI + 50% Serum",< 0.847 nM
same,IC50,"A. baumannii ATCC 17978; ATCC17978, ATCC 17978, RPMI",24 nM
same,Specificity HEK293T (CC50/IC50),"HEK293T; IC50 vs A. baumannii ATCC 17978, RPMI + 50% serum",506006.298
same,Specificity HEK293T (CC50/IC50),"HEK293T; IC50 vs A. baumannii ATCC 17978, RPMI alone",1961.478
same,Specificity HEK293T (CC50/IC50),"HEK293T; IC50 vs A. baumannii HUMC1, RPMI + 50% serum",97331.320
same,Specificity HEK293T (CC50/IC50),"HEK293T; IC50 vs A. baumannii HUMC1, RPMI alone",33559.242
same,Specificity HEK293T (CC50/IC50),"HEK293T; top screen hits, IC50 against A. baumannii HUMC1 in 50% serum",148.31
same,Mutation Frequency,E. coli JJ1886,3.89E−08
same,Specificity HepG2 (CC50/IC50),HepG2,148.31
same,IC50,"A. baumannii HUMC1 [3]; HUMC1, 24 h, HUMC1, RPMI + 50% Serum",< 0.847 nM
same,IC50,"A. baumannii HUMC1 [3]; HUMC1, HUMC1, RPMI + 50% Serum",< 0.847 nM
same,IC50,"A. baumannii HUMC1 [3]; HUMC1, HUMC1, RPMI",1 nM
same,Mutation Frequency,"A. baumannii; A. baumannii ABNIH1, MHII",8.85E−09
same,Mutation Frequency,"A. baumannii; A. baumannii ABNIH1, TSA",5.95E−09
same,Mutation Frequency,"A. baumannii; A. baumannii ATCC17978, MHII",5.72E−09
same,Mutation Frequency,"A. baumannii; A. baumannii ATCC17978, TSA",8.49E−10
same,Mutation Frequency,"A. baumannii; A. baumannii HUMC1, MHII",2.20E−09
same,Mutation Frequency,"A. baumannii; A. baumannii HUMC1, TSA",1.28E−08
same,Mutation Frequency,"A. baumannii; A. baumannii LAC-4, MHII",1.29E−08
same,Mutation Frequency,"A. baumannii; A. baumannii LAC-4, TSA",7.41E−09
same,survival,"A. baumannii HUMC1 [4]; IV infection, 10 mg/kg/day for 3 days, oral gavage, 10 mg/kg/day",improved survival
same,CFUs in blood,"A. baumannii HUMC1 [4]; IV infection, 10 mg/kg/day for 3 days, oral gavage, at 1 hr",significantly lower CFUs in the blood
same,CFUs in blood,"A. baumannii HUMC1 [4]; IV infection, 10 mg/kg/day for 3 days, oral gavage, at 24 hrs, 10 mg/kg/day",significantly lower CFUs in the lung
same,CFUs in blood,"A. baumannii HUMC1 [4]; IV infection, 10 mg/kg/day for 3 days, oral gavage, at 24 hrs, listed as RBT, 10 mg/kg/day",significantly lower CFUs in the blood; also recorded: significantly reduced CFUs
same,survival,"A. baumannii HUMC1 [4]; IV infection, 10 mg/kg/day for 3 days, oral gavage, listed as RBT, 10 mg/kg/day",significant improvement in survival; also recorded: significantly improved survival
same,fully protective at fold lower dose than RIF,"A. baumannii HUMC1 [4]; IV infection, RBT 0.1 or 0.3, RIF 10 or 30 mg/kg/daily for 3 days, printed 100X / 100×",100
same,survival,"A. baumannii HUMC1 [4]; bacteremia model, 10 mg/kg for 3 days, 2 days post infection, PBS/control 0%",about 100%
same,protection,"A. baumannii HUMC1 [4]; murine bacteremia, 0.1 mg/kg",fully protective
same,MIC,"E. coli; E. coli DH5a, MHII",6.25 µg/mL
same,MIC,"E. coli; E. coli JJ1886, MHII",6.25 µg/mL
same,MIC,"E. coli; E. coli JJ1886, RPMI",6.25 µg/mL
same,efficacy RBT vs RIF,LAC-4,no difference in efficacy
same,Mutation Frequency,S. aureus LAC,1.10E−07
same,"protection, multiple doses",Acinetobacter baumannii; G. mellonella infection model,protective at significantly lower doses as compared to RIF
same,lowest efficacious dose (efficacious at doses as low as),"Acinetobacter baumannii; Galleria mellonella, dose-response",0.1 mg/kg
same,MIC,K. pneumonia; MHII,25 µg/mL
same,MIC,K. pneumonia; RPMI,12.5 µg/mL
same,MIC,A. baumannii HUMC1 [5]; 5 × RPMI,< 0.0625 µg/mL
same,MIC,A. baumannii HUMC1 [5]; 10-30 kDa MHII Fraction spiked into RPMI,8 µg/mL
same,MIC,"A. baumannii HUMC1 [5]; 25° C., MHII",4 µg/mL
same,MIC,"A. baumannii HUMC1 [5]; 25° C., RPMI",< 0.06 µg/mL
same,MIC,A. baumannii HUMC1 [5]; <10 kDa MHII Fraction spiked into RPMI,8 µg/mL
